Columns and labels:
Format in all cases: binding
[1] = test system: PLCγ1 nSH2 domain (in tSH2 aa 545–772); test: crystal structure with truncated PLCγ1 tSH2, nSH2 site; details: truncated tSH2 (aa 545–772), resolution 2.1 Å
Experimental: (§1) A shortened version of the PLCγ1 tSH2 domain (aa 545–772) lacking the linker peptide connecting the PLCγ1 cSH2 and SH3 domains (see Results section) was cloned into a pET28a vector carrying an N-terminal His Tag and a SUMO sequence. Expression was carried out in E. coli and the protein was purified to homogeneity as described above. His-Tag and SUMO were proteolytically removed using SUMO protease (SIGMA) following the manufacturer’s instructions, and the cleaved protein purified on a HisTrap column. Fractions containing cleaved protein were further purified by size exclusion chromatography (SEC) using a Superdex 75 26/600 column (GE Healthcare) equilibrated with 50mM Tris pH7.5, 150mM NaCl and 1mM TCEP buffer. The purified protein in SEC buffer was added to lyophilized phosphorylated 12mer pK15 peptide (DDLpYEEVLFPRN) in a 1:8 molar ratio (Protein: peptide) at a final concentration of 3mg/ml of peptide and 7.5mg/ml protein. Crystals were grown at 293 K using the sitting-drop vapor diffusion method in drops containing 1μl protein solution mixed with 1 μL reservoir solution containing 30% PEG 4000, 0.1M TrisHCl pH 8.5 and 0.2M sodium acetate. The crystals were flash frozen in the mother liquor containing 30% ethylene glycol and diffraction data were collected at P13 at DESY-Hamburg. Data were processed, scaled and reduced with XDS [75], Pointless and programs from the CCP4 suite. […]

[2] = test system: PLCγ1 cSH2 domain (in tSH2 aa 545–772); test: crystal structure with truncated PLCγ1 tSH2, cSH2 site; details: truncated tSH2 (aa 545–772), resolution 2.1 Å
Experimental: as §1

[3] = test system: PLCγ1 cSH2 R^694L; test: AlphaLISA, isolated PLCγ1 cSH2 R694L; details: phosphorylated; 300 nM each protein
Experimental: Fig 4 The PLCγ1 cSH2 domain is required for the binding of PLCγ1 to phosphorylated pK15 in vitro and may serve as a dominant-negative inhibitor. GST-fused pK15 cytoplasmic tail WT (A), or its truncated mutant N2 [51] (B), were phosphorylated in vitro by 2xStrep-Src and an AlphaLISA was performed with the indicated His-tagged fragments of PLCγ1. Mean and standard deviation from at least two independent experiments with two technical replicates each are depicted. GST fusion proteins of the N1 (C) or N2 (D) truncation mutants of the pK15 cytoplasmic tail were phosphorylated in vitro by 2xStrep-Src and their interaction with recombinant purified PLCγ1 tSH2 (tandem SH2) or SA (γ-specific array) domains was measured by AlphaLISA in the presence of increasing concentrations (300 nM, 600 nM, 900 nM, 1200 nM) of the purified PLCγ1 cSH2. […] After 48h lysates were collected and analysed by Western blot using an antibody to PLCγ1 pY^783 to assess the level of PLCγ1 phosphorylation. (F) The intensities of the pPLCγ1 bands shown in panel E were quantified by densitometry, normalized to the values obtained with the empty vector (EV) in the presence of pK15, and plotted as relative values. […]
His-tagged PLCγ1 (SA, tSH2 or the isolated SH2 domains) was incubated at room temperature with GST-tagged K15P or its mutants for 1 hour. […] Emission at 615 nm was detected on BioTek Synergy 2 plate reader.

DDLpYEEVLFPRN [pK15 12mer, phosphorylated peptide representing the last 12 amino acids of pK15 CT (DDLp…)]
binding site occupancy in crystal structure [1]: at lower occupancy peptide binding to the nSH2 domain was also observed | binding site occupancy in crystal structure [2]: unambiguously bound to the PLCγ1 cSH2 domain

B1: pK15 CT^WT: pK15 cytoplasmic tail fused to GST at its N-terminal end, phosphorylated in vitro by Src (protein)
chain: SQLLNEVELQEVNRDPPNVFGYASILVSGAEESREPSPQPDQSGMSILRVDGGSAFRIDTAQAATQPTDDLYEEVLFPRN
modifications: tyrosine-phosphorylated in vitro by Src; sites not stated for this construct; left off: GST, N-terminal, kept
interaction (AlphaLISA) [3]: abolished

Source: article PMC8244865, “Recruitment of phospholipase Cγ1 to the non-structural membrane protein pK15 of Kaposi Sarcoma-associated herpesvirus promotes its Src-dependent phosphorylation” (PLoS Pathogens, 2021)
